According to patent publication US11230541B2, “Heterocyclic compound” (Takeda Pharmaceutical Company Limited, priority 2017, dated 2022):

Target: T1, NMDA receptor composed of four subunits including 2 sets of heterodimers of NR1 and NR2B (Homo sapiens, UniProt Q13224)
T1 construct: host or cells: HEK293 (tetracycline-induced expression)
Experiment: NR2B Ca2+ influx assay (FLIPR, Fluo-4) in HEK293 cells expressing human GRIN1 and GRIN2B
Type: cell-based
Conditions: HEK293, 10 μM final compound concentration, glutamic acid/glycine-induced Ca2+ influx, read-out: inhibitory rate (10 μM compound concentration)
Method in brief: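 Inhibition rate was calculated from 5-min cumulative Fluo-4 signal (FLIPR, 3-s reads), using agonist-free buffer wells as 100% inhibition. Compound, 10 μM final, was applied 15 min before adding buffer with 30 μM glutamic acid and glycine to HEK293 cells with tetracycline-induced human NR1/NR2B, in HEPES pH 7.2 with 1.8 mM CaCl2.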

T1 sequence (Q13224 27-1484, other chains not shown): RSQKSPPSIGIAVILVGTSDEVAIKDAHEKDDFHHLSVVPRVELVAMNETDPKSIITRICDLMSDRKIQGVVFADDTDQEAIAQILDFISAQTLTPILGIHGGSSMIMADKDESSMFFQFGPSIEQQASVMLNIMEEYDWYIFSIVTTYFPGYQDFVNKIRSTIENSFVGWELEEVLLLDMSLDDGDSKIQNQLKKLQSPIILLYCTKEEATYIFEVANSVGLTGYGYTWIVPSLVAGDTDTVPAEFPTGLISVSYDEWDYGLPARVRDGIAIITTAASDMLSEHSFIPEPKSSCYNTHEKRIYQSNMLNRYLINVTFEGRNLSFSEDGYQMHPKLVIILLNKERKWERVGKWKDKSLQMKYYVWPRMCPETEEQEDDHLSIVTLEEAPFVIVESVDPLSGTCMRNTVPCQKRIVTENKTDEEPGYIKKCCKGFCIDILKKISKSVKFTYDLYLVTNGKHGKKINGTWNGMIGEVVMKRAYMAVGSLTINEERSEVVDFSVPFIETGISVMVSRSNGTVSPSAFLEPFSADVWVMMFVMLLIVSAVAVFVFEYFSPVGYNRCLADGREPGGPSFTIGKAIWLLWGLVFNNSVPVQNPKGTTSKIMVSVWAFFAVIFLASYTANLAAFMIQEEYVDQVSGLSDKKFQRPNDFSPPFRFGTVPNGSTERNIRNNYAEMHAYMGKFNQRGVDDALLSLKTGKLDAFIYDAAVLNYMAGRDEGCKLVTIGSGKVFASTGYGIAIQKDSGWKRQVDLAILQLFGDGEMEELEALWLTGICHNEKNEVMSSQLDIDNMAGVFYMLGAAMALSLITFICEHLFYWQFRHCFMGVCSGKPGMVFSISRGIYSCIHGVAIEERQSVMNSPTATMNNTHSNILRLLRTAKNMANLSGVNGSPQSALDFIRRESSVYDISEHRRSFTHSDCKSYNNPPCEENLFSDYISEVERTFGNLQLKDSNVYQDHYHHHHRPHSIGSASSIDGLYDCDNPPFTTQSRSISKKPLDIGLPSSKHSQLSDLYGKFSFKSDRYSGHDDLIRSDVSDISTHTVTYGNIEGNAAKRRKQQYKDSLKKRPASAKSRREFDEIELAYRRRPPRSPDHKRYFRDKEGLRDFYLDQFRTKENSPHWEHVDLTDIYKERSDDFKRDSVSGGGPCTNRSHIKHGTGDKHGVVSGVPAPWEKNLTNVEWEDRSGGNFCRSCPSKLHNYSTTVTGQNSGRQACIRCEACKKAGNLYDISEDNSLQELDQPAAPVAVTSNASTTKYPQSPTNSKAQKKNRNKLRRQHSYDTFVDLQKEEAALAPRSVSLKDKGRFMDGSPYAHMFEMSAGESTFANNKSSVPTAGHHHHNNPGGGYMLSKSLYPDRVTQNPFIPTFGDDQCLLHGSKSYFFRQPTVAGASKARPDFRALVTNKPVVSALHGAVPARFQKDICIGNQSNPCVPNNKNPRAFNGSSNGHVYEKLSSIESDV

inhibition at 10 µM [%]	Structure (SMILES)
89	Cc1ccc2ncn(C)c2c1CNC(=O)c1csc(C(F)(F)F)c1 [Example 163, N-((1,6-dimethyl-1H-benzimidazol-7-yl)methyl)-5-(trifluoromethyl)-thiophene-3-carboxamide]
92	CCc1ccc2ncn(C)c2c1CNC(=O)c1ccc(OC(F)F)nc1 [Example 164, 6-(difluoromethoxy)-N-((6-ethyl-1-methyl-1H-benzimidazol-7-yl)methyl)nicotinamide]
91	COc1ncc(C(=O)NCc2c(C3CC3)ccc3[nH]nnc23)cc1F [Example 165, N-((5-cyclopropyl-1H-benzotriazol-4-yl)methyl)-5-fluoro-6-methoxynicotinamide]
56	O=C(NCc1cccc2[nH]ncc12)c1csc(Cl)c1 [Example 166, 5-chloro-N-(1H-indazol-4-ylmethyl)thiophene-3-carboxamide]
58	O=C(NCc1cccc2[nH]ncc12)c1ccc(C(F)(F)F)s1 [Example 167, N-(1H-indazol-4-ylmethyl)-5-(trifluoromethyl)-thiophene-2-carboxamide]
90	O=C(NCc1cccc2[nH]ncc12)c1cc(Cl)c(Cl)s1 [Example 168, 4,5-dichloro-N-(1H-indazol-4-ylmethyl)thiophene-2-carboxamide]
70	COc1ncc(C(=O)NCc2cccc3[nH]ncc23)cc1Cl [Example 169, 5-chloro-N-(1H-indazol-4-ylmethyl)-6-methoxynicotinamide]
76	O=C(NCc1cccc2[nH]ncc12)c1ccc(OC(F)(F)F)nc1 [Example 170, N-(1H-indazol-4-ylmethyl)-6-(trifluoromethoxy)-nicotinamide]
85	CCOc1ncc(C(=O)NCc2cccc3[nH]ncc23)cc1F [Example 171, 6-ethoxy-5-fluoro-N-(1H-indazol-4-ylmethyl)nicotinamide]
60	COc1ncc(C(=O)NCc2cccc3[nH]ncc23)cc1F [Example 172, 5-fluoro-N-(1H-indazol-4-ylmethyl)-6-methoxynicotinamide]
80	O=C(NCc1cccc2[nH]ncc12)c1cc(F)c(C(F)(F)F)c(F)c1 [Example 173, 3,5-difluoro-N-(1H-indazol-4-ylmethyl)-4-(trifluoromethyl)-benzamide]
80	O=C(NCc1cccc2[nH]ncc12)c1ccc(C(F)(F)F)c(F)c1 [Example 174, 3-fluoro-N-(1H-indazol-4-ylmethyl)-4-(trifluoromethyl)-benzamide]
82	O=C(NCc1cccc2[nH]ncc12)c1ccc(C(F)(F)F)cc1 [Example 175, N-(1H-indazol-4-ylmethyl)-4-(trifluoromethyl)-benzamide]
51	Cc1ccc(C(=O)NCc2cccc3[nH]ncc23)cc1F [Example 176, 3-fluoro-N-(1H-indazol-4-ylmethyl)-4-methylbenzamide]
52	O=C(NCc1cccc2[nH]ncc12)c1ccc(C(F)F)cc1 [Example 177, 4-(difluoromethyl)-N-(1H-indazol-4-ylmethyl)benzamide]
70	O=C(NCc1cccc2[nH]ncc12)c1ccc(C(F)F)c(F)c1 [Example 178, 4-(difluoromethyl)-3-fluoro-N-(1H-indazol-4-ylmethyl)benzamide]
96	O=C(NCc1cccc2[nH]ncc12)c1ccc(OC(F)(F)F)c(F)c1 [Example 179, 3-fluoro-N-(1H-indazol-4-ylmethyl)-4-(trifluoromethoxy)-benzamide]
89	COc1c(F)cc(C(=O)NCc2cccc3[nH]ncc23)cc1F [Example 180, 3,5-difluoro-N-(1H-indazol-4-ylmethyl)-4-methoxybenzamide]
67	COc1ccc(C(=O)NCc2cccc3[nH]ncc23)cc1F [Example 181, 3-fluoro-N-(1H-indazol-4-ylmethyl)-4-methoxybenzamide]
97	O=C(NCc1cccc2[nH]ncc12)c1ccc(OC(F)F)c(Cl)c1 [Example 182, 3-chloro-4-(difluoromethoxy)-N-(1H-indazol-4-ylmethyl)benzamide]
87	O=C(NCc1cccc2[nH]ncc12)c1ccc(OC(F)F)cc1 [Example 183, 4-(difluoromethoxy)-N-(1H-indazol-4-ylmethyl)benzamide]
93	O=C(NCc1cccc2[nH]ncc12)c1cc(F)c(OC(F)F)c(F)c1 [Example 184, 4-(difluoromethoxy)-3,5-difluoro-N-(1H-indazol-4-ylmethyl)benzamide]
74	Cc1ccc(C(=O)NCc2cccc3[nH]ncc23)cc1Cl [Example 185, 3-chloro-N-(1H-indazol-4-ylmethyl)-4-methylbenzamide]

inhibition at 10 µM [%]	Structure (SMILES)
56	O=C(NCc1cccc2[nH]ncc12)c1ccc(F)c(Cl)c1 [Example 186, 3-chloro-4-fluoro-N-(1H-indazol-4-ylmethyl)benzamide]
74	O=C(NCc1cccc2[nH]ncc12)c1ccc(Cl)c(F)c1 [Example 187, 4-chloro-3-fluoro-N-(1H-indazol-4-ylmethyl)benzamide]
52	O=C(NCc1cccc2[nH]ncc12)c1cc(F)c(F)c(Cl)c1 [Example 188, 3-chloro-4,5-difluoro-N-(1H-indazol-4-ylmethyl)benzamide]
67	O=C(NCc1cccc2[nH]ncc12)c1cc(F)c(Cl)c(F)c1 [Example 189, 4-chloro-3,5-difluoro-N-(1H-indazol-4-ylmethyl)benzamide]
86	O=C(NCc1cccc2[nH]ncc12)c1ccc(C(F)F)c(Cl)c1 [Example 190, 3-chloro-4-(difluoromethyl)-N-(1H-indazol-4-ylmethyl)benzamide]
94	O=C(NCc1cccc2[nH]ncc12)c1cnc(OC(F)F)c(F)c1 [Example 191, 6-(difluoromethoxy)-5-fluoro-N-(1H-indazol-4-ylmethyl)nicotinamide]
94	O=C(NCc1cccc2[nH]ncc12)c1ccc(OC(F)F)c(F)c1 [Example 192, 4-(difluoromethoxy)-3-fluoro-N-(1H-indazol-4-ylmethyl)benzamide]
86	COc1ncc(C(=O)NCc2c(C)ccc3[nH]nnc23)cc1F [Example 193, 5-fluoro-6-methoxy-N-((5-methyl-1H-benzotriazol-4-yl)methyl)nicotinamide]
97	Cc1ccc2[nH]nnc2c1CNC(=O)c1ccc(OC(F)(F)F)cc1 [Example 194, N-((5-methyl-1H-benzotriazol-4-yl)methyl)-4-(trifluoromethoxy)-benzamide]
91	Cc1ccc2[nH]nnc2c1CNC(=O)c1cc(F)c(C(F)(F)F)c(F)c1 [Example 195, 3,5-difluoro-N-((5-methyl-1H-benzotriazol-4-yl)methyl)-4-(trifluoromethyl)-benzamide]
78	Cc1ccc2[nH]nnc2c1CNC(=O)c1cc(F)c(C)c(F)c1 [Example 196, 3,5-difluoro-4-methyl-N-((5-methyl-1H-benzotriazol-4-yl)methyl)benzamide]
96	COc1c(F)cc(C(=O)NCc2c(C)ccc3[nH]nnc23)cc1F [Example 197, 3,5-difluoro-4-methoxy-N-((5-methyl-1H-benzotriazol-4-yl)methyl)benzamide]
90	Cc1ccc2[nH]nnc2c1CNC(=O)c1cc(F)c(Cl)c(F)c1 [Example 198, 4-chloro-3,5-difluoro-N-((5-methyl-1H-benzotriazol-4-yl)methyl)benzamide]
92	Cc1ccc2[nH]nnc2c1CNC(=O)c1ccc(C(F)(F)F)c(F)c1 [Example 199, 3-fluoro-N-((5-methyl-1H-benzotriazol-4-yl)methyl)-4-(trifluoromethyl)-benzamide]
85	Cc1ccc(C(=O)NCc2c(C)ccc3[nH]nnc23)cc1F [Example 200, 3-fluoro-4-methyl-N-((5-methyl-1H-benzotriazol-4-yl)methyl)benzamide]
92	COc1ccc(C(=O)NCc2c(C)ccc3[nH]nnc23)cc1F [Example 201, 3-fluoro-4-methoxy-N-((5-methyl-1H-benzotriazol-4-yl)methyl)benzamide]
83	Cc1ccc2[nH]nnc2c1CNC(=O)c1cc(F)c(F)c(Cl)c1 [Example 202, 3-chloro-4,5-difluoro-N-((5-methyl-1H-benzotriazol-4-yl)methyl)benzamide]
93	O=C(NCc1c(C2CC2)ccc2[nH]nnc12)c1ccc(OC(F)(F)F)cc1 [Example 203, N-((5-cyclopropyl-1H-benzotriazol-4-yl)methyl)-4-(trifluoromethoxy)-benzamide]
93	COc1c(F)cc(C(=O)NCc2c(C3CC3)ccc3[nH]nnc23)cc1F [Example 204, N-((5-cyclopropyl-1H-benzotriazol-4-yl)methyl)-3,5-difluoro-4-methoxybenzamide]
87	CCc1ccc2[nH]nnc2c1CNC(=O)c1cc(F)c(C(F)(F)F)c(F)c1 [Example 205, N-((5-ethyl-1H-benzotriazol-4-yl)methyl)-3,5-difluoro-4-(trifluoromethyl)-benzamide]
95	CCc1ccc2[nH]nnc2c1CNC(=O)c1cc(F)c(OC)c(F)c1 [Example 206, N-((5-ethyl-1H-benzotriazol-4-yl)methyl)-3,5-difluoro-4-methoxybenzamide]
98	COc1ccc2[nH]nnc2c1CNC(=O)c1cc(F)c(OC)c(F)c1 [Example 207, 3,5-difluoro-4-methoxy-N-((5-methoxy-1H-benzotriazol-4-yl)methyl)benzamide]
85	CCc1ccc2[nH]nnc2c1CNC(=O)c1cnc(OC)c(F)c1 [Example 208, N-((5-ethyl-1H-benzotriazol-4-yl)methyl)-5-fluoro-6-methoxynicotinamide]
